Experimental findings from patent publication US10285989B2, “Pyrimidinone amide compounds as PDE2 inhibitors” (Merck Sharp & Dohme Corp., priority 2015, dated 2019) are described below.

A word on the Ki: it is a dissociation constant, usually derived from enzyme kinetics or from competition with a known ligand.

Chain of human PDE2A1 (O00408 other isoform, or with tags, fused parts or gaps): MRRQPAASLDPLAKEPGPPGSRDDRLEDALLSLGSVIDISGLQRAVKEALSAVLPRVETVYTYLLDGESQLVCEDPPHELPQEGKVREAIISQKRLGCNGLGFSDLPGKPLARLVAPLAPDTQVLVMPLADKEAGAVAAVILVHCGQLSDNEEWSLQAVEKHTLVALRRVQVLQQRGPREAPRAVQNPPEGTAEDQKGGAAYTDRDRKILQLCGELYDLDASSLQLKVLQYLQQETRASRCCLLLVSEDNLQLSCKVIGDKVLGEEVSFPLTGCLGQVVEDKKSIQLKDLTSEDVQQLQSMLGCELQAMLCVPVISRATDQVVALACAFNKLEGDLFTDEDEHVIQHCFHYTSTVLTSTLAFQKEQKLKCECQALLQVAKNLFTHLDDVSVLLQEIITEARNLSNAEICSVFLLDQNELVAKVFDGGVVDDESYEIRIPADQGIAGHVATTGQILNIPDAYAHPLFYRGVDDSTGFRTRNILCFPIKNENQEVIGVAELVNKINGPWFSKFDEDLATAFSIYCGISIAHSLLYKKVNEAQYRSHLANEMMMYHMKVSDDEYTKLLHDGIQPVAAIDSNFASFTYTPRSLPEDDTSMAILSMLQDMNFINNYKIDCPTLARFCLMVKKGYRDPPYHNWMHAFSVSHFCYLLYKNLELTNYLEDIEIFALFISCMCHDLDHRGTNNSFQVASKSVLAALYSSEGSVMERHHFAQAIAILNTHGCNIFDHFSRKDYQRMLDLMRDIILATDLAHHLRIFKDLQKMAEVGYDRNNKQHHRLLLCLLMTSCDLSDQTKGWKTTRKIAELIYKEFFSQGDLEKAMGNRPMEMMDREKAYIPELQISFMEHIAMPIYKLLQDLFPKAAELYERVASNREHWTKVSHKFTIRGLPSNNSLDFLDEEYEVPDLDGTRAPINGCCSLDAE

For the first experiment, the target named is human PDE2A1 (Homo sapiens (Human), UniProt O00408). The experiment can be described thus: PDE2 IMAP FP inhibition assay, human PDE2A1 (selectivity panel format). It is filed as biochemical. The settings on record: @ 3 μM; Lab B; read-out: Human PDE2 % inhibition at a given concentration - Lab B. The procedure:
Selectivity for PDE2, as compared to other PDE families, was assessed using the IMAP® technology. Human PDE10A2 enzyme was prepared from cytosolic fractions of transiently transfected HEK cells.
A Labcyte POD 810 (Labcyte, Sunnyvale, Calif.) was used to dispense 200 nL from each well of the titration plate to make eleven copies of the assay plate for each titration, one copy for each PDE enzyme. A solution of each enzyme (dilution from aliquots, sufficient to produce 20% substrate conversion) and a separate solution of FAM-labeled cAMP or FAM-labeled cGMP from Molecular Devices (Sunnyvale, Calif., product # R7506 or cGMP#R7508), at a final concentration of 50 nM were made in the assay buffer (10 mM Tris HCl, pH 7.2, 10 mM MgCl2, 0.05% NaN3 0.01% Tween-20, and 1 mM DTT). Note that the substrate for PDE2 is 50 nM FAM cAMP containing 1000 nM of cGMP. The enzyme and the substrate were then added to the assay plates in two consecutive additions of 10 μL and then shaken to mix. The reaction was allowed to proceed at room temperature for 60 minutes. A binding solution was then made from the kit components, comprised of 80% Solution A, 20% Solution B and binding reagent at a volume of 1/600 the total binding solution. The enzymatic reaction was stopped by addition of 60 μL of the binding solution to each well of the assay plate. The plates were sealed and shaken for 10 seconds. The plates were incubated at room temperature for one hour, then the parallel and perpendicular fluorescence was measured using a Tecan Genios Pro plate reader (Tecan, Switzerland). […] The intrinsic PDE2 inhibitory activity of a compound which may be used in accordance with the present invention may be determined by these assays. […]
`CC(NC(=O)c1cc(=O)[nH]c(N(C)C)n1)c1ccc(C2(C(F)(F)F)CC2)cc1` (single isomer, unassigned) [Example 125, (S)- or (R)-2-(dimethylamino)-6-oxo-N-[1-{4-[1-(trifluoromethyl)cyclopropyl]phenyl}ethyl]-1,6-dihydropyrimidine-4-carboxamide]: the inhibition at 3 µM was 38%.

For the molecule `CN(C)c1nc(C(=O)NC(c2ccc(SC(F)(F)F)c(F)c2)C2(C)CC2)cc(=O)[nH]1` (single isomer, unassigned) [Example 119, (S)- or (R)-2-(dimethylamino)-N-[{3-fluoro-4-[(trifluoromethyl)sulfanyl]phenyl}(1-methylcyclopropyl)methyl]-6-oxo-1,6-dihydropyrimidine-4-carboxamide], the inhibition at 3 µM worked out at 49%.

The same experiment, now with this note: Lab A; read-out: Human PDE2 Ki (nM) - Lab A.
Consider `CC(C)[C@@H](NC(=O)c1cc(=O)[nH]c(N2CC[C@@H](O)C2)n1)c1ccc(OC(F)(F)F)c(F)c1` [Example 166, N-{(1R)-1-[3-fluoro-4-(trifluoromethoxy)phenyl]-2-methylpropyl}-2-[(3R)-3-hydroxypyrrolidin-1-yl]-6-oxo-1,6-dihydropyrimidine-4-carboxamide], for which the inhibition constant Ki is 1.3 nM.

Staying with this experiment, now noted: Lab B; read-out: Human PDE2 Ki (nM) - Lab B.
`COCC1CCN(c2nc(C(=O)N[C@@H](c3ccc(C(F)(F)F)cc3)C(C)(C)C)cc(=O)[nH]2)C1` (single isomer, unassigned) [Example 177, (S)- or (R)-N-{(1R)-2,2-dimethyl-1-[4-(trifluoromethyl)phenyl]propyl}-2-[3-(methoxymethyl)pyrrolidin-1-yl]-6-oxo-1,6-dihydropyrimidine-4-carboxamide]: the Ki is 0.46 nM.

`CC(=O)C(NC(=O)c1cc(=O)[nH]c(N(C)C)n1)c1ccc(C(F)(F)F)cc1` (centres unmarked) [Example 197, 2-(dimethylamino)-6-oxo-N-{2-oxo-1-[4-(trifluoromethyl)phenyl]propyl}-1,6-dihydropyrimidine-4-carboxamide]: the Ki was 3.6 nM.

With `CC[C@@H](NC(=O)c1cc(=O)[nH]c(N(C)C)n1)c1ccc(C(F)F)cc1` [Example 67, N-{(1R)-1-[4-(difluoromethyl)phenyl]propyl}-2-(dimethylamino)-6-oxo-1,6-dihydropyrimidine-4-carboxamide], the Ki was 6.9 nM.

Consider `CN(C)c1nc(C(=O)NC(CO)c2ccc(C(F)(F)F)cc2)cc(=O)[nH]1` (centres unmarked) [Example 206, 2-(dimethylamino)-N-{2-hydroxy-1-[4-(trifluoromethyl)phenyl]ethyl}-6-oxo-1,6-dihydropyrimidine-4-carboxamide], for which the Ki is 7.2 nM.

For `C[C@@H](NC(=O)c1cc(=O)[nH]c(N(C)C)n1)c1ccc(C(C)(F)F)cc1` [Example 74, N-{(1R)-1-[4-(1,1-difluoroethyl)phenyl]ethyl}-2-(dimelhylamino)-6-oxo-1,6-dihydropyrimidine-4-carboxamide], the Ki worked out at 3.9 nM.

With `CN(C)c1nc(C(=O)N[C@@H](c2ccc(S(F)(F)(F)(F)F)cc2)C(C)(C)O)cc(=O)[nH]1` [Example 211, 2-(dimethylamino)-N-{(1S)-2-hydroxy-2-methyl-1-[4-(pentafluoro-λ^6-sulfanyl)phenyl]propyl}-6-oxo-1,6-dihydropyrimidine-4-carboxamide], the Ki was 0.073 nM.

In the case of `CN(C)c1nc(C(=O)N[C@@H](c2ccc(OC(F)(F)F)cc2Cl)C(C)(C)O)cc(=O)[nH]1` [Example 210, N-{(1S)-1-[2-chloro-4-(trifluoromethoxy)phenyl]-2-hydroxy-2-methylpropyl}-2-(dimethylamino)-6-oxo-1,6-dihydropyrimidine-4-carboxamide], the Ki came to 0.54 nM.

As for `CC(C)[C@@H](NC(=O)c1cc(=O)[nH]c(O)n1)c1ccc(SC(F)(F)F)cc1` [Example 20, (R)-2-hydroxy-N-(2-methyl-1-(4-((trifluoromethyl)thio)phenyl)propyl)-6-oxo-1,6-dihydropyrimidine-4-carboxamide], the Ki is 329 nM.

Take `CC(C)[C@@H](NC(=O)c1cc(=O)[nH]c(N(C)C)n1)c1ccc(C(F)F)c(F)c1` [Example 65, N-{(1R)-1-[4-(difluoromethyl)-3-fluorophenyl]-2-methylpropyl}-2-(dimethylamino)-6-oxo-1,6-dihydropyrimidine-4-carboxamide]: the Ki amounted to 2.2 nM.

As to `CCC(C)(NC(=O)c1cc(=O)[nH]c(N(C)C)n1)c1ccc(C(F)(F)F)cc1F` (single isomer, unassigned) [Example 129, (S)- or (R)-2-(dimethylamino)-N-{1-[2-fluoro-4-(trifluoromethyl)phenyl]-1-methylpropyl}-6-oxo-1,6-dihydro-pyrimidine-4-carboxamide], the Ki was determined as 5.5 nM.

In the case of `CN(C)c1nc(C(=O)NC(c2ccc(C3(C)CC3)c(F)c2)C(C)(C)C)cc(=O)[nH]1` (single isomer, unassigned) [Example 123, (S)- or (R)-2-(dimethylamino)-N-{1-[3-fluoro-4-(1-methylcyclopropyl)phenyl]-2,2-dimethylpropyl}-6-oxo-1,6-dihydropyrimidine-4-carboxamide], the Ki was 167 nM.

In the case of `CN(C)c1nc(C(=O)NC2(c3ccc(C(F)(F)F)cc3)COC2)cc(=O)[nH]1` [Example 212, 2-(dimethylamino)-6-oxo-N-{3-[4-(trifluoromethyl)phenyl]oxetan-3-yl}-1,6-dihydropyrimidine-4-carboxamide], the Ki worked out at 9.2 nM.

For the molecule `CN(C)c1nc(C(=O)NC2(c3ccc(OC(C)(C)C)cc3)CC2)cc(=O)[nH]1` [Example 50, N-[1-(4-tert-butoxyphenyl)cyclopropyl]-2-(dimethylamino)-6-oxo-1,6-dihydropyrimidine-4-carboxamide], the Ki is 27 nM.

As for `CN(C)c1nc(C(=O)NC2(c3ccc(C(F)F)c(F)c3)CC2)cc(=O)[nH]1` [Example 70, N-{1-[4-(difluoromethyl)-3-fluorophenyl]cyclopropyl}-2-(dimethylamino)-6-oxo-1,6-dihydropyrimidine-4-carboxamide], the inhibition constant (Ki) amounted to 9.7 nM.

On to `C[C@H]1C[C@]1(NC(=O)c1cc(=O)[nH]c(N(C)C)n1)c1ccc(C(F)(F)F)cc1` (single isomer, unassigned; enantiomer a) [Example 174, 2-(dimethylamino)-N-{2-methyl-1-[4-(trifluoromethyl)phenyl]cyclopropyl}-6-oxo-1,6-dihydropyrimidine-4-carboxamide (cis, enantiomer A)], for which the Ki came out at 2.7 nM.

As for `CN(C)c1nc(C(=O)N[C@H](c2ccc(C(F)(F)F)cc2)C(C)(C)C)cc(=O)[nH]1` [Example 72, 2-(dimethylamino)-N-{(1S)-2,2-dimethyl-1-[4-(trifluoromethyl)phenyl]propyl}-6-oxo-1,6-dihydropyrimidine-4-carboxamide], the Ki stood at 17 nM.

Take `C[C@H]1C[C@]1(NC(=O)c1cc(=O)[nH]c(N(C)C)n1)c1ccc(C(F)(F)F)cc1` (single isomer, unassigned; enantiomer b) [Example 175, 2-(dimethylamino)-N-{2-methyl-1-[4-(trifluoromethyl)phenyl]cyclopropyl}-6-oxo-1,6-dihydropyrimidine-4-carboxamide (cis, enantiomer B)]: the Ki is 0.92 nM.

As to `CN(C)c1nc(C(=O)NC(c2ccc(C(F)(F)F)cc2)C(F)(F)F)cc(=O)[nH]1` (centres unmarked) [Example 207, 2-(dimethylamino)-6-oxo-N-{2,2,2-trifluoro-1-[4-(trifluoromethyl)phenyl]ethyl}-1,6-dihydropyrimidine-4-carboxamide], the Ki came out at 2.9 nM.

On to `CN(C)c1nc(C(=O)NC2(c3ccc(CC(F)(F)F)cc3)CC2)cc(=O)[nH]1` [Example 51, 2-(dimethylamino)-6-oxo-N-{1-[4-(2,2,2-trifluoroethyl)phenyl]cyclopropyl}-1,6-dihydropyrimidine-4-carboxamide], for which the Ki was 9.7 nM.

For `CN(C)c1nc(C(=O)NC(C)(C)c2ccc(C(F)F)c(F)c2)cc(=O)[nH]1` [Example 69, N-{1-[4-(difluoromethyl)-3-fluorophenyl]-1-methylethyl}-2-(dimethylamino)-6-oxo-1,6-dihydropyrimidine-4-carboxamide], the Ki was 10 nM.

As for `CC[C@@H](NC(=O)c1cc(=O)[nH]c(N(C)C)n1)c1ccc(C(F)F)c(F)c1` [Example 68, N-{(1R)-1-[4-(difluoromethyl)-3-fluorophenyl]propyl}-2-(dimethylamino)-6-oxo-1,6-dihydropyrimidine-4-carboxamide], the Ki was 12 nM.

As for `CC(NC(=O)c1cc(=O)[nH]c(N(C)C)n1)c1ccc(C2(C(F)(F)F)CC2)cc1` (single isomer, unassigned) [Example 126, (R)- or (S)-2-(dimethylamino)-6-oxo-N-[1-{4-[1-(trifluoromethyl)cyclopropyl]phenyl}ethyl]-1,6-dihydropyrimidine-4-carboxamide], the Ki is 16 nM.

In the case of `CN(C)c1nc(C(=O)NC2(c3ccc(OC(F)(F)F)cc3)CCC2)cc(=O)[nH]1` [Example 201, 2-(dimethylamino)-6-oxo-N-{1-[4-(trifluoromethoxy)phenyl]cyclobutyl}-1,6-dihydropyrimidine-4-carboxamide], the inhibitory constant (Ki) was 18 nM.
